Results as given in publication PMC9963656, “Synthesis, Molecular Docking, and Bioactivity Study of Novel Hybrid Benzimidazole Urea Derivatives: A Promising α-Amylase and α-Glucosidase Inhibitor Candidate with Antioxidant Activity” (Pharmaceutics, 2023).

Experiments:
[1] = Total antioxidant capacity (TAC), molybdate reduction; details: for TAC: total antioxidant capacity: compound 1 mM in DMSO, 695 nm
Procedure: An amount of 2 mL of freshly prepared 0.6 M solution of sulfuric acid, a solution of ammonium molybdate (4 mM), and a buffer solution of sodium phosphate (28 mM) were placed in small glass test tubes and thoroughly mixed with the compound solution (200 μL in DMSO with a concentration of 1 mM). An amount of 2 mL of molybdate reagent was mixed with 200 μL of distilled water to make a blank test. The cylinders were warmed to 85 °C for 1.5 h before cooling to ambient temperature. At 695 nm, the produced blue color was assessed with a UV spectrophotometer, with the blank reading having to serve as the auto-zero point. The TAC results were calculated using the Trolox standard calibration curve.

[2] = DPPH scavenging activity (DPPH-SA); details: for DPPH-SA: 2,2-diphenyl-1-picrylhydrazyl scavenging activity: compound 1 mM, 517 nm
Procedure: The ability of the compounds to scavenge free radicals was tested against DPPH-stable free radicals. The degree of reduction in the DPPH violet color is directly proportional to the scavenging efficacy of the compounds. According to the method of Aroua et al., 1 mL of the DMSO solutions of the tested compounds (1 mM final concentration) was thoroughly mixed in test tubes with the DPPH solution prepared at the concentration of 300 µM in methanol. After 30 min at room temperature, the reduction in DPPH-violet color was measured at 517 nm. The DPPH-SA of the compounds was calculated using the DPPH-Trolox calibration curve.

[3] = Ferric reducing antioxidant power (FRAP) assay; details: for FRAP: ferric reducing antioxidant power: compound 1 mM, 593 nm
Procedure: The FRAP reagent is a 1:1:10 mixture of TPTZ (2,4,6-Tris(2-pyridyl)-S-triazine, 10 mM prepared in 40 mM HCl), FeCl3.6H2O (20 mM), and acetate buffer (300 mM, pH 3.6). Accurately, 0.1 mL of the samples (final concentration 1 mM in DMSO) was thoroughly mixed with 2 mL of the FRAP reagent and incubated at room temperature for 30 min. At 593 nm, the absorbance was measured. The compounds FRAP activity was calculated using the FRAP-trolox calibration curve in trolox equivalent.

[4] = Iron chelating activity assay (MCA); details: for MCA: metal chelating activity: compound 1 mM, 562 nm
Procedure: Using the method of Zengin et al. with modification, the ability of compounds to chelate iron compared to the EDTA was estimated. To inchoate the color, a compound solution in DMSO ([…] a final concentration of 1 mM) plus ferrous chloride (25 μL, 2 mM, FeCl2) was added to 100 μL of ferrozine. At 562 nm, the absorbance of the mixture was measured in comparison to a blank (prepared similarly to a test without ferrozine). The chelating activity of the extract was calculated in equivalents to the EDTA standard calibration curve.

α-amylase = α-amylase (Aspergillus oryzae, UniProt P0C1B3); assay: biochemical; details: triplicate values; read-out: α-Amylase Inhibition IC50 ± SEM
Procedure: The α-amylase inhibition activity was measured using the previously reported methodologies. An amount of 500 μL of test sample ([…]) and 500 μL of […] α-amylase (source: Aspergillus oryzae) solution (0.5 mg/mL) in […] phosphate buffer (pH 6.9) were incubated for 10 min at 25 °C. Following pre-incubation, 500 μL of 1% starch solution in 0.02 M sodium phosphate buffer (pH 6.9) was added and incubated for 10 min at 25 °C. An amount of 1 mL of dinitro salicylic acid color reagent was used to stop the reaction. The tubes were then placed in boiling water for 5 min before being cooled to room temperature. After diluting the solutions with 10 mL of distilled water, the absorbance at 540 nm was measured. […] The percentage of enzyme inhibition was calculated using the following equation:(1) % of Enzyme Inhibition=(Absorbance of control – Absorbance of compound)×100 /Absorbance of control

α-glucosidase = target: T1, α-glucosidase (Saccharomyces cerevisiae, UniProt P53341); assay: biochemical; details: triplicate values; read-out: α-Glucosidase Inhibition IC50 ± SEM
T1 construct: purchased Sigma-Aldrich
T1 sequence (P53341 whole entry): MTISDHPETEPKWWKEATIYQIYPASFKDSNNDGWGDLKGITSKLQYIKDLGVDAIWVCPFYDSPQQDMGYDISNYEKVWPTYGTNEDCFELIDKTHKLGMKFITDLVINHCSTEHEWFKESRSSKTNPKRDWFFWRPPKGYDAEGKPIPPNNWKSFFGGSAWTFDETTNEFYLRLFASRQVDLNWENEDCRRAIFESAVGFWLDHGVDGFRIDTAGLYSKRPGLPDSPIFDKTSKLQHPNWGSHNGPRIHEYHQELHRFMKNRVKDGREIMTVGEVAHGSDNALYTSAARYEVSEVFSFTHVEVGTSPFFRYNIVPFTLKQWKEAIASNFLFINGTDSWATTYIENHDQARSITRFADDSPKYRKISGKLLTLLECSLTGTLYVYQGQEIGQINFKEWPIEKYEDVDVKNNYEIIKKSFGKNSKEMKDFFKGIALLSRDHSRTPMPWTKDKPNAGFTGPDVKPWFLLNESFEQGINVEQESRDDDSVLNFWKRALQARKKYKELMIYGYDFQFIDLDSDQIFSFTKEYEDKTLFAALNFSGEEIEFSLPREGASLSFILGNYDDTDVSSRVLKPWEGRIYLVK
Procedure: The inhibition of α-glucosidase activity was measured using a modified version of a previously published method. In 100 mL of phosphate buffer (pH 6.8) containing 200 mg of bovine serum albumin, one milligram of α-glucosidase (Saccharomyces cerevisiae, Sigma-Aldrich, St. Louis, MO, USA) was dissolved (Merck, Darmstadt, Germany). The reaction mixture was made up of 10 μL of sample at various concentrations ([…]), 490 μL of phosphate buffer pH 6.8, and 250 μL of 5 mM p-nitrophenyl-D-glucopyranoside (Sigma-Aldrich, Buchs, Switzerland). After a 5 min preincubation at 37 °C, 250 μL of α-glucosidase (0.15 unit/mL) was added and incubated at 37 °C for 15 min. The reaction was stopped by adding 2000 μL Na2CO3 200 mM. α-glucosidase activity was measured using a spectrophotometer UV-Vis (Shimadzu 265, Kyoto, Japan) at 400 nm by measuring the amount of p-nitrophenol released from p-NPG. […] Equation (1) was used to calculate the percentage of inhibition.

Row | IC50 (α-amylase) [µM] | IC50 (α-glucosidase) [µM] | melting point [°C] | SMILES | TAC: total antioxidant capacity [1] | DPPH-SA: 2,2-diphenyl-1-picrylhydrazyl scavenging activity [2] | FRAP: ferric reducing antioxidant power [3] | MCA: metal chelating activity [4] | total antioxidant capacity (TAC), molybdenum (VI) reducing activity [1] [mM trolox equivalents] | ferric reducing antioxidant power (FRAP) [3] [mM trolox equivalents] | DPPH-SA [2] [mM trolox equivalents] | metal chelating activity (MCA) [4] [mM EDTA equivalents]
1 | 40.7 ± 0.06 | 42.97 ± 0.19 | 129 to 131 | O=C(Nc1ccccc1)Nc1ccccc1-c1nc2ccccc2[nH]1 [3a, 1-(2-(1H-benzo[d]imidazol-2-yl)phenyl)-3-phenylurea] | 1.33 ± 0.46 trolox equivalent per 1 mM of the compounds | 1.17 ± 0.07 trolox equivalent per 1 mM of the compounds | 6.53 ± 0.03 trolox equivalent per 1 mM of the compounds | 1.62 ± 0.10 EDTA equivalent per 1 mM of the compounds |  |  |  | 
2 | 41.7 ± 0.06 | 45.97 ± 0.19 | 203 to 205 | O=C(Nc1ccccc1-c1nc2ccccc2[nH]1)Nc1cccc2ccccc12 [3b, 1-(2-(1H-benzo[d]imidazol-2-yl)phenyl)-3-(naphthalen-1-yl)urea] | 5.16 ± 0.69 trolox equivalent per 1 mM of the compounds | 0.96 ± 0.06 trolox equivalent per 1 mM of the compounds | 9.25 ± 0.20 trolox equivalent per 1 mM of the compounds | 1.55 ± 0.07 EDTA equivalent per 1 mM of the compounds | 5.16 ± 0.69 |  |  | 
3 | 18.7 ± 0.23 | 17.47 ± 0.03 | 197 to 199 | COc1ccc(NC(=O)Nc2ccccc2-c2nc3ccccc3[nH]2)cc1 [3c, 1-(2-(1H-benzo[d]imidazol-2-yl)phenyl)-3-(4-methoxyphenyl)urea] | 4.43 ± 0.53 trolox equivalent per 1 mM of the compounds | 1.61 ± 0.02 trolox equivalent per 1 mM of the compounds | 8.65 ± 0.29 trolox equivalent per 1 mM of the compounds | 1.55 ± 0.22 EDTA equivalent per 1 mM of the compounds | 4.43 ± 0.53 | 8.65 ± 0.29 |  | 
4 | 25.65 ± 0.03 | 27.47 ± 0.13 | 330 to 332 | O=C(Nc1ccccc1-c1nc2ccccc2[nH]1)NC1CCCCC1 [3d, 1-(2-(1H-benzo[d]imidazol-2-yl)phenyl)-3-cyclohexylurea] | 2.47 ± 0.42 trolox equivalent per 1 mM of the compounds | 2.89 ± 1.07 trolox equivalent per 1 mM of the compounds | 5.67 ± 0.69 trolox equivalent per 1 mM of the compounds | 1.46 ± 0.10 EDTA equivalent per 1 mM of the compounds |  |  | 2.89 ± 1.07 | 
5 | 20.7 ± 0.06 | 21.97 ± 0.19 | 196 to 198 | CC(C)NC(=O)Nc1ccccc1-c1nc2ccccc2[nH]1 [3e, 1-(2-(1H-benzo[d]imidazol-2-yl)phenyl)-3-isopropylurea] | 2.52 ± 0.80 trolox equivalent per 1 mM of the compounds | 1.70 ± 0.01 trolox equivalent per 1 mM of the compounds | 2.75 ± 0.15 trolox equivalent per 1 mM of the compounds | 1.47 ± 0.09 EDTA equivalent per 1 mM of the compounds |  |  |  | 
6 | 28.33 ± 0.02 | 29.01 ± 0.12 | 196 to 198 | CCCCNC(=O)Nc1ccccc1-c1nc2ccccc2[nH]1 [3f, 1-(2-(1H-benzo[d]imidazol-2-yl)phenyl)-3-butylurea] | 8.50 ± 0.87 trolox equivalent per 1 mM of the compounds | 1.55 ± 0.03 trolox equivalent per 1 mM of the compounds | 5.99 ± 0.02 trolox equivalent per 1 mM of the compounds | 1.40 ± 0.07 EDTA equivalent per 1 mM of the compounds | 8.50 ± 0.87 |  |  | 
7 | 22.33 ± 0.12 | 23.01 ± 0.12 | 190 to 192 | O=C(Nc1ccc(NC(=O)Nc2ccccc2-c2nc3ccccc3[nH]2)cc1)Nc1ccccc1-c1nc2ccccc2[nH]1 [3g, 1,1’-(1,4-phenylene)bis(3-(2-(1H-benzo[d]imidazol-2-yl)phenyl)urea)] | 10.06 ± 1.51 trolox equivalent per 1 mM of the compounds | 3.86 ± 0.04 trolox equivalent per 1 mM of the compounds | 16.12 ± 0.29 trolox equivalent per 1 mM of the compounds | 1.36 ± 0.09 EDTA equivalent per 1 mM of the compounds | 10.06 ± 1.51 | 16.12 ± 0.29 | 3.86 ± 0.04 | 
8 | 43.04 ± 0.02 | 44.99 ± 0.09 | 190 to 192 | O=C(NCC1CCC(CNC(=O)Nc2ccccc2-c2nc3ccccc3[nH]2)CC1)Nc1ccccc1-c1nc2ccccc2[nH]1 (centres unmarked) [3h, 1,1′-(cyclohexane-1,4-diylbis(methylene))bis(3-(2-(1H-benzo[d]imidazol-2-yl)phenyl)urea)] | 2.25 ± 0.65 trolox equivalent per 1 mM of the compounds | 1.09 ± 0.03 trolox equivalent per 1 mM of the compounds | 6.79 ± 0.50 trolox equivalent per 1 mM of the compounds | 2.95 ± 0.21 EDTA equivalent per 1 mM of the compounds |  |  |  | 2.95 ± 0.21
